Patent publication US6194416A, “Heterocyclic compounds and their use” (Eli Lilly and Company, priority 1997, dated 2001)
Where two headings read alike, the source gives them in different places.

Experiments:
nicotinic receptors = assay: Nicotinic channel receptor binding: [3H]-cystine binding to crude synaptic membranes from whole rat brain; conditions: 1.25 nM [3H-cystine], about 60 min, about 4° C.
Description: Nicotinic Channel Receptor Binding Protocol:
The activity of the compounds claimed herein at the nicotinic receptor can be accomplished by the following assay.
Binding of […] to nicotinic receptors was accomplished using crude synaptic membrane preparations from whole rat brain (Pabreza et al. Molecular Pharmacol., 1990, 39:9). Washed membranes were stored at about -80° C. prior to use. Frozen aliquots were slowly thawed and resuspended in 20 volumes of buffer (containing: […] NaCl, 5 mM KCl, 2 mM MgCl2, 2 mM Tris-Cl, ph 7.4 @4° C.). After centrifuging at 20,000×g for 15 minutes, the pellets were resuspended in about 30 volumes of buffer. Homogenate (containing about 125-150 ug protein) was added to tubes containing concentrations of test compound and [^3 H-cystine] (1.25 nM) in a final volume of 500 uL. Samples were incubated for about 60 minutes at about 4° C., then rapidly filtered through GF/B filters presoaked in 0.5% polyethylimine using 3×4 mL of ice cold buffer. The filters were counted.

[1] = target: muscarinic acetylcholine receptors; assay: Inhibition of specific binding of 3H-Oxotremorine-M (3H-Oxo) to rat cortex membranes; design: species or system male Wistar rats; conditions: 1.0 nM 3H-Oxotremorine, 30 min, 25° C., pH 7.4
Description: The pharmacological properties of the compounds of the invention can be illustrated by determining their capability to inhibit the specific binding of ^3 H-Oxotremorine-M (^3 H-Oxo). Birdsdall N. J. M., Hulme E. C., and Burgen A. S. V. (1980). "The Character of Muscarinic Receptors in Different Regions of the Rat Brain". Proc. Roy. Soc. London (Series B) 207,1.
^3 H-Oxo labels muscarinic receptor in the CNS (with a preference for agonist domains of the receptors). Three different sites are labeled by ^3 H-Oxo. […] Using the present experimental conditions only the high and medium affinity sites are determined.
The inhibitory effects of compounds on ^3 H-oxo binding reflects the affinity for muscarinic acetylcholine receptors.
(§1) All preparations are performed at 0-4° C. unless otherwise indicated. Fresh cortex (0.1-1 g) from male Wistar rats (150-250 g) is homogenized for 5-10 s in 10 mL 20 nM Hepes pH: 7.4, with an Ultra-Turrax homogenizer. The homogenizer is rinsed with 10 mL of buffer and the combined suspension centrifuged for 15 min. at 40,000×g. The pellet is washed three times with buffer. In each step the pellet is homogenized as before in 2×10 mL of buffer and centrifuged for 10 min. at 40,000×g.
The final pellet is homogenized in 20 mM Hepes pH: 7.4 (100 mL per g of original tissue) and used for binding assay. Aliquots of 0.5 mL is added 25 μL of test solution and 25 μL of ^3 H-Oxotremorine (1.0 nM, final concentration) mixed and incubated for 30 min. at 25° C. Non-specific binding is determined in triplicate using arecoline (1 μg/mL, final concentration) as the test substance. After incubation samples are added 5 mL of ice-cold buffer and poured directly onto Whatman GF/C glass fiber filters under suction and immediately washed 2 times with 5 mL of ice-cold buffer. The amount of radioactivity on the filters are determined by conventional liquid scintillation counting. Specific binding is total binding minus non specific binding.
Test substances are dissolved in 10 mL water (if necessary heated on a steam-bath for less than 5 min.) at a concentration of 2.2 mg/mL. 25-75% inhibition of specific binding must be obtained before calculation of IC50. The test value will be given as IC50 (the concentration (nM) of the test substance which inhibits the specific binding of ^3 H-oxo by 50%). IC50 =(applied test substance concentration) x([…])nM where Co is specific binding in control assays and Cx is the specific binding in the test assay. (The calculations assume normal mass-action kinetics).

[2] = target: T1, muscarinic receptors (M1-site, pirenzepine sensitive site) (Rattus norvegicus, UniProt P08482); assay: Inhibition of 3HPRZ (pirenzepine, [N-methyl-3H]) binding to rat cerebral cortex membranes; design: species or system male Wistar rats
T1 construct: from tissue; host or cells: cerebral cortex membranes of male Wistar rats
T1 sequence (P08482 1-460): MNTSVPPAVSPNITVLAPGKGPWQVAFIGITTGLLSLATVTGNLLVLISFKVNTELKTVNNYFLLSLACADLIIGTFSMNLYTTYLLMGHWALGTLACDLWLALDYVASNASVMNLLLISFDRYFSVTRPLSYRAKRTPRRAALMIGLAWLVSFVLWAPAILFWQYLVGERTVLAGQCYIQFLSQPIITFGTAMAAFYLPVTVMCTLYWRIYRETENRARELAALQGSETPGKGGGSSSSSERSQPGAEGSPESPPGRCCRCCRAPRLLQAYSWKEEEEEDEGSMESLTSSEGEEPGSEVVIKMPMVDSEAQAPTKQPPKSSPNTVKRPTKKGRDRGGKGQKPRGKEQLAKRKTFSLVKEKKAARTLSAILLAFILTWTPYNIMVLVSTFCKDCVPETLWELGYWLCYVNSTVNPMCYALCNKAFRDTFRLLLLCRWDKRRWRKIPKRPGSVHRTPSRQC
Description: Furthermore the pharmacological properties of the compounds of the invention can also be illustrated by determining their capability to inhibit ^3 HPRZ (pirenzepine, [N-methyl-^3 H]) binding to rat cerebral cortex membranes.
Pirenzepine binds selectively to subtype of muscarinic receptors. Historically the type is named the M1 -site, whereas pirenzepine sensitive site would be more appropriate.
as §1, with “cortex ([…])” for “cortex (0.1-1 g)”, “rats (150-200” for “rats (150-250”, “20 mM” for “20 nM”, “with 2×10” for “with 10”, “in 3×10” for “in 2×10”
The final pellet is homogenized in 20 MM Hepes pH: 7.4 (100 mL per g of original tissue) and used for binding assay. Aliquots of 0.5 mL is added 20 μL of test solution and 25 μL of ^3 HPRZ (1.0 nM, final conc.), mixed and incubated for 60 min. at 20° C. Non-specific binding is determined in triplicate using atropine (1.0 μg/mL, final conc.) as the test substance. After incubation samples are added 5 mL of ice-cold buffer and poured directly onto Whatman GF/C glass fiber filters under suction and immediately washed 2 times with 5 mL of ice-cold buffer.
The amount of radioactivity on the filters are determined by conventional liquid scintillation counting. Specific binding is total binding minus non-specific binding.
Test substances are dissolved in 10 mL water, at a concentration of 0.22 mg/mL. 25-75% inhibition of specific binding must be obtained before calculation of IC50.
The test value will be given as IC50 (the concentration (nM) of the test substance which inhibits the specific binding of ^3 HPRZ by 50%). IC50 =(applied test substance concentration) x(Cx /Co -Cx)nM where Co is specific binding in control assays and Cx is the specific binding in the test assay. (The calculations assume normal mass-action kinetics).

[3] = rat cerebral cortex, 1.0 nM 3HPRZ, 60 min, 20° C., pH 7.4, read-out: 3HPRZ IC50

Ki (nicotinic receptors) [nM]	IC50 [1] [nM]	IC50 [2, 3] [nM]	Compound	IC50 [2] [nM]
–	2.2	0.54	CCCCSc1nccnc1O[C@@H]1CN2CCC[C@H]1C2 (relative stereo) [Compound 24, 3-(1-butylthio)-2-[endo-(+,-)-6-(1-azabicyclo[3.2.1]octyloxy)]-pyrazine]	–
–	1.7	0.68	CCCSc1nccnc1O[C@@H]1CN2CCC[C@H]1C2 (relative stereo) [Compound 29, (±)-endo-2-Propylthio-3-(1-azabicyclo[3.2.1]octyl-6-oxy)pyrazine]	–
–	4.4	0.82	CCCCCSc1nccnc1O[C@@H]1CN2CCC[C@H]1C2 (relative stereo) [Compound 30, (±)-endo-2-Pentylthio-3-(1-azabicyclo[3.2.1]octyl-6-oxy)pyrazine]	–
–	3.4	1.7	CC(C)CSc1nccnc1O[C@@H]1CN2CCC[C@H]1C2 (relative stereo) [Compound 31, (±)-endo-2-(2-Methylpropylthio)-3-(1-azabicyclo[3.2. 1]octyl-6-oxy)pyrazine]	–
–	1.5	0.7	FC(F)(F)CSc1nccnc1O[C@@H]1CN2CCC[C@H]1C2 (relative stereo) [Compound 33, (±)-endo-2-(2,2,2,-Trifluoroethylthio)-3-(1-azabicyclo[3.2. 1]octyl-6-oxy)pyrazine]	–
–	2	0.66	C/C=C/CSc1nccnc1O[C@@H]1CN2CCC[C@H]1C2 (relative stereo) [Compound 34, (±)-endo-2-(trans-2-Butenylthio)-3-(1-azabicyclo[3.2. 1]octyl-6-oxy)pyrazine]	–
–	3.2	0.54	FC(F)(F)CCCSc1nccnc1O[C@@H]1CN2CCC[C@H]1C2 (relative stereo) [Compound 35, (±)-endo-2-(4,4,4-Trifluorobutylthio)-3-(1-azabicyclo[3.2. 1]octyl-6-oxy)pyrazine]	–
–	0.34	5.8	C=CCSc1nccnc1O[C@@H]1CN2CCC[C@H]1C2 (relative stereo) [Compound 36, (±)-endo-2-(2-propenylthio)-3-(1-azabicyclo[3.2.1]octyl-6-oxy)pyrazine]	–
–	1.3	0.76	CC(C)CCSc1nccnc1O[C@@H]1CN2CCC[C@H]1C2 (relative stereo) [Compound 37, (±)-endo-2-(3-Methylbutylthio)-3-(1-azabicyclo[3.2. 1]octyl-6-oxy)pyrazine]	–
–	6.2	3.3	FC(F)(F)Oc1ccc(CSc2nccnc2O[C@@H]2CN3CCC[C@H]2C3)cc1 (relative stereo) [Compound 38, (±)-endo-2-(4-Trifluoromethoxybenzylthio)-3-(1-azabicyclo[3.2. 1]octyl-6-oxy)pyrazine]	–
–	10	80	CCCSc1cncc(O[C@@H]2CN3CCC[C@H]2C3)n1 (relative stereo) [Compound 39, (±)-endo-2-Propylthio-6-(1-azabicyclo[3.2.1]octyl-6-oxy)pyrazine]	–
–	60	17	FC(F)(F)CSc1cncc(O[C@@H]2CN3CCC[C@H]2C3)n1 (relative stereo) [Compound 40, (±)-endo-2-(2.2.2-Trifluoroethylthio)-6-(1-azabicyclo[3.2. 1]octyl-6-oxy)pyrazine]	–
–	3.2	1.6	COCCSc1nccnc1O[C@@H]1CN2CCC[C@H]1C2 (relative stereo) [Compound 41, (±)-endo-2-(2-Methoxyethylthio)-3-(1-azabicyclo[3.2. 1]octyl-6-oxy)pyrazine]	–
–	9.1	4.8	C(=Cc1ccccc1)CSc1nccnc1O[C@@H]1CN2CCC[C@H]1C2 (relative stereo) [Compound 42, (±)-endo-2-(3-Phenyl-2-propenylthio)-3-(1-azabicyclo[3.2. 1]octyl-6-oxy)pyrazine]	–
–	8.1	2.2	CC(C)=CCCSc1nccnc1O[C@@H]1CN2CCC[C@H]1C2 (relative stereo) [Compound 43, (±)-endo-2-(4-Methyl-3-pentenylthio)-3-(1-azabicyclo[3.2. 1]octyl-6-oxy)pyrazine]	–
21400	–	–	CCCCSc1nccnc1OCCN(C)C [Compound 17]	–
580	–	–	CCCCSc1nccnc1OCC[N+](C)(C)C [Compound 18, 3-(1-Butylthio)-2-(2-(trimethylamino)ethoxy)pyrazine iodide]	–
130	–	–	CN(C)CCOc1cnccn1 [Compound 26, 2-(2-Dimethylaminoethoxy)pyrazine]	–

Compound	Ki (nicotinic receptors) [nM]	IC50 [1] [nM]	IC50 [2, 3] [nM]	IC50 [2] [nM]
CCCCSc1nccnc1OC1CN2CCC1CC2 (racemic) [Compound 6, (+/-)-3-Butylthio-2-(1-azabicyclo[2.2.2]octyl-3-oxy)pyrazine]	5490	–	–	–
Clc1nccnc1O[C@H]1CN2CCC[C@@H]1C2 (relative stereo) [Compound 19, 3-Chloro-2-[endo-(+,-)-6-(1-azabicyclo[3.2.1]octyloxy)]-pyrazine]	2780	–	–	–
CCCCOc1nccnc1O[C@@H]1CN2CCC[C@H]1C2 (relative stereo) [Compound 23, 3-(1-butyloxy)-2-[endo-(+,-)-6-(1-azabicyclo[3.2.1]octyloxy)]-pyrazine]	–	4.9	–	2.7
CCSc1nccnc1O[C@@H]1CN2CCC[C@H]1C2 (relative stereo) [Compound 32, (±)-endo-2-Ethylthio-3-(1-azabicyclo[3.2.1]octyl-6-oxy)pyrazine]	–	3.9	4	–
